Results from patent publication US10689377B2 (Mirati Therapeutics, Inc., priority 2017, dated 2020).
Like-named read-outs stand apart in the source and are kept apart here.

Columns and labels:
KRas G12C = KRas G12C (Homo sapiens, UniProt P01116, G12C); experiment: Cellular inhibition of KRas G12C measured by Phospho-ERK in NCI-H358 cells; assay type: cell-based; conditions: pERK(Thr202/Tyr204) normalized with GAPDH, NCI-H358 cells, 3 hours; read-out: IC50
In short: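 NCI-H358 cells treated 3 h with compound (0.5% DMSO final), then fixed and methanol-permeabilised. In-cell immunofluorescence measured pERK(Thr202/Tyr204) normalised to GAPDH as percent of DMSO control. IC50 from a 4-parameter dose-response fit.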

[1] = In vitro stability in human whole blood; assay type: in vitro ADME; conditions: male, whole blood diluted to 50% with PBS, 37° C.
Source text: Materials: The following reagents were used as received: acetonitrile (HPLC grade, Burdick & Jackson, Madison, Wis.), phosphate buffered saline (PBS), pH 7.4 (Sigma-Aldrich, Co., St. Louis, Mo.), water (HPLC grade, JT Baker, Phillipsburg, N.J.), DMSO (EM Science, Merck KGaA, Darmstadt, Germany) and isopropanol (IPA, reagent grade, EMD Chemicals, Gibbstown, N.J.). Propantheline and esmolol (Sigma-Aldrich) were used as the positive control compounds in the assay. Diazepam (Sigma-Aldrich) was used as an internal standard for quantitation. Human whole blood was obtained from BioIVT (Westbury, N.Y.) […]. All other reagents and solvents were of the highest analytical grade supplied by Sigma (St. Louis, Mo.) and were used as received.
Blood Incubations: The in vitro stability of representative KRas G12C inhibitor compounds of the present invention in the presence whole blood was conducted in the following manner. Esmolol or propantheline, which are known to undergo ester hydrolysis by esterases in blood and plasma, were used as the positive controls in the assays. A 10 mM stock solution of propantheline, esmolol, or a compound of the present invention in DMSO was diluted to 500 μM with DMSO. Aliquots of whole blood (600 μL), in triplicate, were placed in the appropriate wells of a polypropylene 96-deep well plate (Axygen Scientific, Union City, Calif.). The blood was diluted to 50% using PBS, pH 7.4 (600 μL). The diluted blood was pre-incubated for 15 minutes at 37° C. Each well was dosed with 12 μL of the 500 μM DMSO stock simultaneously for a final test concentration of 5 μM. The plates were mixed at 600 rpm for 10 seconds on a plate shaker (IKA MTS 2/4 Digital Microtiter Shaker, VWR). Aliquots of 100 μL from each well of whole blood were transferred to three separate 96-deep well plates labeled 0, 60, or 240 minutes. At the end of each designated time point, the red blood cells were lysed with 100 μL of water, mixed at 600 rpm for one minute, and stopped with 800 μL of acetonitrile containing IS (0.625 μM diazepam). The plates were mixed on the plate shaker at 600 rpm for one minute and spun in a centrifuge at 2095×g for 7 minutes at room temperature using an Allegra benchtop centrifuge (Beckman Coulter, Fullerton, Calif.). Supernatant (100 μL) was transferred to a shallow 96-well plate (Costar) using a liquid sample handling system (Apricot, Perkin-Elmer, Boston, Mass.). The addition of 100 μL of water was added to each sample of supernatant for a final volume of 200 μL. The plates were sealed and the contents of each well were analyzed by LC-MS/MS.
Analytical quantitation: The LC-MS/MS system was comprised of an HTS-PAL autosampler (Leap Technologies, Carrboro, N.C.), an HP1200 HPLC (Agilent, Palo Alto, Calif.), and an API4000 triple quadrupole mass spectrometer (PE Sciex, a division of Applied Biosystems, Foster City, Calif.). […] The total run time, including re-equilibration, for a single injection was 2 minutes. Mass spectrometric detection of the analytes was accomplished using the ESI ionization mode. Ion current was optimized during infusion of a stock solution of propantheline, esmolol, or the representative test compound. Analyte responses, including the IS were measured by multiple reaction monitoring (MRM) of transitions unique to each compound.
Calculations: Data were acquired and peak areas were calculated for test compounds and the internal standard using Analyst 1.6.2 software (Sciex). The mean peak area ratios were calculated by averaging the peak area ratios (n=3) of each test compound and the IS for each sample.
Peak area tables were exported to BioAssay Enterprise (CambridgeSoft, Cambridge, Mass.), where the average analyte-to-internal standard peak area ratios were used to calculate percent remaining (% REM) and half-life (t1/2). Percent remaining (f) was calculated by determining the ratio of the peak area ratio at each time point to the peak area ratio of the time-zero samples. […]

[2] = pH 7.4, human whole blood diluted to 50% with PBS, 5 μM, 240-minute incubation, read-out: Compound Half-life

Sequence of KRas G12C (P01116 1-188 isoform P01116-2 G12C): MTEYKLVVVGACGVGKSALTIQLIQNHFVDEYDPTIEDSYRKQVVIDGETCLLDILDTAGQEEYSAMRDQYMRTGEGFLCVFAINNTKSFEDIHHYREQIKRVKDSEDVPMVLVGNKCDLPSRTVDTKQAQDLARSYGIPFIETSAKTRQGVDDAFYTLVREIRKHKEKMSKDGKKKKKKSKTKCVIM

SMILES	IC50 (KRas G12C) [µM]	half-life at 5 µM [1, 2] [h]	half-life at 5 µM ([1]; pH 7.4, human whole blood, positive control, read-out: half life) [h]
CN(C)C/C=C/C(=O)N1CCN(c2nc(OC[C@@H]3CCCN3C)nc3c2CCN(c2cccc4ccccc24)C3)C[C@@H]1CC#N [Example 235, 2-((S)-1-((E)-4-(dimethylamino)but-2-enoyl)-4-(2-(((S)-1-methylpyrrolidin-2-yl)methoxy)-7-(naphthalen-1-yl)-5,6,7,8-tetrahydropyrido[3,4-d]pyrimidin-4-yl)piperazin-2-yl)acetonitrile]	0.0001 to 1	> 33.3	
CN1CCC[C@H]1COc1nc2c(c(N3CCN(C(=O)/C=C/CN4CCCCC4)[C@@H](CC#N)C3)n1)CCN(c1cccc3ccccc13)C2 [Example 236, 2-((S)-4-(2-(((S)-1-methylpyrrolidin-2-yl)methoxy)-7-(naphthalen-1-yl)-5,6,7,8-tetrahydropyrido[3,4-d]pyrimidin-4-yl)-1-(E-4-(piperidin-1-yl)but-2-enoyl)piperazin-2-yl)acetonitrile]	0.0001 to 1	3.33 to 16.7	
C=CC(=O)N1CCN(c2nc(OC[C@@H]3CCCN3C)nc3c2CCN(c2cccc4cccc(Cl)c24)C3)C[C@@H]1CC#N [Example 331, 2-[(2S)-4-[7-(8-chloro-1-naphthyl)-2-[[(2S)-1-methylpyrrolidin-2-yl]methoxy]-6,8-dihydro-5H-pyrido[3,4-d]pyrimidin-4-yl]-1-prop-2-enoyl-piperazin-2-yl]acetonitrile]		3.33 to 16.7	
C=CC(=O)N1CCN(c2nc(OC[C@@H]3CCCN3C)nc3c2CCN(c2cccc4cccc(C)c24)C3)C[C@@H]1CC#N [Example 359, 2-[(2S)-4-[7-(8-methyl-1-naphthyl)-2-[[(2S)-1-methylpyrrolidin-2-yl]methoxy]-6,8-dihydro-5H-pyrido[3,4-d]pyrimidin-4-yl]-1-prop-2-enoyl-piperazin-2-yl]acetonitrile]	0.0001 to 1	3.33 to 16.7	
CN1CCC[C@H]1COc1nc2c(c(N3CCN(C(=O)/C=C/CN4CCOCC4)[C@@H](CC#N)C3)n1)CCN(c1cccc3cccc(Cl)c13)C2 [Example 367, 2-[(2S)-4-[7-(8-chloro-1-naphthyl)-2-[[(2S)-1-methylpyrrolidin-2-yl]methoxy]-6,8-dihydro-5H-pyrido[3,4-d]pyrimidin-4-yl]-1-[(E)-4-morpholinobut-2-enoyl]piperazin-2-yl]acetonitrile]	0.0001 to 1	16.7 to 33.3	
C/C=C/C(=O)N1CCN(c2nc(OC[C@@H]3CCCN3C)nc3c2CCN(c2cccc4cccc(C)c24)C3)C[C@@H]1CC#N [Example 372]	0.0001 to 1	> 33.3	
C=C(F)C(=O)N1CCN(c2nc(OC[C@@H]3CCCN3C)nc3c2CCN(c2cccc4cccc(Cl)c24)C3)C[C@@H]1CC#N [Example 478, 2-[(2S)-4-[7-(8-chloro-1-naphthyl)-2-[[(2S)-1-methylpyrrolidin-2-yl]methoxy]-6,8-dihydro-5H-pyrido[3,4-d]pyrimidin-4-yl]-1-(2-fluoroprop-2-enoyl)piperazin-2-yl]acetonitrile]		> 33.3	
CN1CCC[C@H]1COc1nc2c(c(N3CCN(C(=O)/C=C/CF)[C@@H](CC#N)C3)n1)CCN(c1cccc3cccc(Cl)c13)C2 [Example 479, 2-[(2S)-4-[7-(8-chloro-1-naphthyl)-2-[[(2S)-1-methylpyrrolidin-2-yl]methoxy]-6,8-dihydro-5H-pyrido[3,4-d]pyrimidin-4-yl]-1-[(E)-4-fluorobut-2-enoyl]piperazin-2-yl]acetonitrile]	0.0001 to 1	> 33.3	
CN1CCC[C@H]1COc1nc2c(c(N3CCN(C(=O)/C=C/CN4CCC(F)C4)[C@@H](CC#N)C3)n1)CCN(c1cccc3cccc(Cl)c13)C2 (stereo partly drawn) [Example 480, 2-[(2S)-4-[7-(8-chloro-1-naphthyl)-2-[[(2S)-1-methylpyrrolidin-2-yl]methoxy]-6,8-dihydro-5H-pyrido[3,4-d]pyrimidin-4-yl]-1-[(E)-4-(3-fluoropyrrolidin-1-yl)but-2-enoyl]piperazin-2-yl]acetonitrile]	0.0001 to 1	> 33.3	
CN1CCC[C@H]1COc1nc2c(c(N3CCN(C(=O)/C=C/CN4CC(F)C4)[C@@H](CC#N)C3)n1)CCN(c1cccc3cccc(Cl)c13)C2 [Example 481, 2-[(2S)-4-[7-(8-chloro-1-naphthyl)-2-[[(2S)-1-methylpyrrolidin-2-yl]methoxy]-6,8-dihydro-5H-pyrido[3,4-d]pyrimidin-4-yl]-1-[(E)-4-(3-fluoroazetidin-1-yl)but-2-enoyl]piperazin-2-yl]acetonitrile]	0.0001 to 1	> 33.3	
CN(C/C=C/C(=O)N1CCN(c2nc(OC[C@@H]3CCCN3C)nc3c2CCN(c2cccc4cccc(Cl)c24)C3)C[C@@H]1CC#N)CC(F)(F)F [Example 482, 2-[(2S)-4-[7-(8-chloro-1-naphthyl)-2-[[(2S)-1-methylpyrrolidin-2-yl]methoxy]-6,8-dihydro-5H-pyrido[3,4-d]pyrimidin-4-yl]-1-[(E)-4-[methyl(2,2,2-trifluoroethyl)amino]but-2-enoyl]piperazin-2-yl]acetonitrile]	0.0001 to 1	> 33.3	
CN1CCC[C@H]1COc1nc2c(c(N3CCN(C(=O)/C=C/C(F)F)[C@@H](CC#N)C3)n1)CCN(c1cccc3cccc(Cl)c13)C2 [Example 484, 2-[(2S)-4-[7-(8-chloro-1-naphthyl)-2-[[(2S)-1-methylpyrrolidin-2-yl]methoxy]-6,8-dihydro-5H-pyrido[3,4-d]pyrimidin-4-yl]-1-[(E)-4,4-difluorobut-2-enoyl]piperazin-2-yl]acetonitrile]	0.0001 to 1	≤ 3.33	
Cc1cccc2cccc(N3CCc4c(nc(OC[C@@H]5CCCN5C)nc4N4CCN(C(=O)/C=C/CN5CC(F)C5)[C@@H](CC#N)C4)C3)c12 [Example 515, 2-[(2S)-1-[(E)-4-(3-fluoroazetidin-1-yl)but-2-enoyl]-4-[7-(8-methyl-1-naphthyl)-2-[[(2S)-1-methylpyrrolidin-2-yl]methoxy]-6,8-dihydro-5H-pyrido[3,4-d]pyrimidin-4-yl]piperazin-2-yl]acetonitrile]		> 33.3	
COC/C=C/C(=O)N1CCN(c2nc(OC[C@H]3C[C@@H](OC)CN3C)nc3c2CCN(c2cccc4cccc(C)c24)C3)C[C@@H]1CC#N [Example 552, 2-[(2S)-1-[(E)-4-methoxybut-2-enoyl]-4-[2-[[(2R,4R)-4-methoxy-1-methyl-pyrrolidin-2-yl]methoxy]-7-(8-methyl-1-naphthyl)-6,8-dihydro-5H-pyrido[3,4-d]pyrimidin-4-yl]piperazin-2-yl]acetonitrile]		> 33.3	
C=C(F)C(=O)N1CCN(c2nc(OC[C@H]3CCCN3C)nc3c2CCN(c2cccc4cccc(Cl)c24)C3)C[C@@H]1CC#N [Example 557, 2-[(2S)-4-[7-(8-Chloro-1-naphthyl)-2-[[(2R)-1-methylpyrrolidin-2-yl]methoxy]-6,8-dihydro-5H-pyrido[3,4-d]pyrimidin-4-yl]-1-(2-fluoroprop-2-enoyl)piperazin-2-yl]acetonitrile]		> 33.3	
CC(C)[N+](C)(CCOC(=O)C1c2ccccc2Oc2ccccc21)C(C)C [Propantheline, reference compound]		≤ 3.33	1.63
